Reference: US20230192631A1, “Biphenyl Derivatives” (Hoffmann-La Roche Inc., priority 2020, published 2023)

Target: T1, human cGAS (residues 161-522) (Homo sapiens, UniProt Q8N884)
T1 construct: Recombinantly expressed purified human cGAS (residues 161-522) was used at 25 nM; made in house
Test: Malachite Green assay to measure cGAS activity
Assay type: biochemical
Conditions: coupled enzymatic assay, phosphate detection by Malachite Green; 25 nM cGAS, 80 μM ATP, 80 μM GTP, 100 nM ISD, 4 hour at RT
Description: Compounds were tested for cGAS inhibition in a coupled enzymatic assay based on Phosphate detection by Malachite Green. Final assay conditions were 20 mM TRIS pH 7.5 (Applichem), 5 mM MgCl2 (Sigma) and 0.01% BSA (Sigma) supplemented with 80 μM ATP (Sigma), 80 μM GTP (Sigma) and 100 nM Interferon Stimulating DNA (ISD) (Microsynth). Recombinantly expressed purified human cGAS (residues 161-522) was used at 25 nM.
All compounds were prepared as 10 mM stock solutions in DMSO and a 16 pt dilution series in DMSO with a dilution factor of 2.5 was prepared. 1 μL of DMSO dilution series was transferred to 32.3 μL reaction buffer, mixed by pipetting up/down, spun for 1 minute at 3000 rpm and was visually inspected for precipitation. 5 μL of 3-fold enzyme stock solution were transferred to an empty 384-well Black/Clear Flat Bottom Polystyrene NBS (Corning) rows 3-24. Rows 1-2 were filled with assay buffer. Plates were spun 10 seconds at 1000 rpm (164×g). 5 μL of compound intermediate dilution was added and mixed by pipetting up/down to rows 3-24. Rows 1-2 were filled with 3.1% DMSO assay buffer. Plates were spun 10 seconds at 1000 rpm (164×g). 5 μL 3-fold Nucleotide/DNA mix was added to all wells to start the reaction. Plates were spun 10 seconds at 1000 rpm (164×g) and incubated for 4 hour at room temperature (RT) in the dark. 5 μL 4 U/mL PPase (Sigma) were added to all wells. Plates spun 10 seconds at 1000 rpm (164×g). 10 μL BioMol green Solution (Enzo Life Sciences) was added to all wells. Plates spun 10 seconds at 1000 rpm (164×g) and incubated 30 minutes at RT in the dark. Absorbance data was collected 620 nm on an EnVision Multilable Reader (Perkin Elmer) and the following measurement settings were used: excitation filter photometric was 620 nm; excitation from the top; measurement height was 1 mm; number of flashes was 30; number of flashes integrated was 1.
All plates are checked for abnormalities and outliers in the Blank Control (no protein, row 1) and the Neutral Control (no compound, row 2) are excluded using the 3*SD rule. Data was normalized to 0 and 100% by Blank and Neutral Control and each curve was fitted and judged using the 4 parameter logistic equation to determine the IC50 for cGAS inhibition.
Table 1 provides IC50 values (μM) for cGAS inhibition obtained for particular examples of the present invention as measured by the above-described assay.

T1 sequence (Q8N884 161-522): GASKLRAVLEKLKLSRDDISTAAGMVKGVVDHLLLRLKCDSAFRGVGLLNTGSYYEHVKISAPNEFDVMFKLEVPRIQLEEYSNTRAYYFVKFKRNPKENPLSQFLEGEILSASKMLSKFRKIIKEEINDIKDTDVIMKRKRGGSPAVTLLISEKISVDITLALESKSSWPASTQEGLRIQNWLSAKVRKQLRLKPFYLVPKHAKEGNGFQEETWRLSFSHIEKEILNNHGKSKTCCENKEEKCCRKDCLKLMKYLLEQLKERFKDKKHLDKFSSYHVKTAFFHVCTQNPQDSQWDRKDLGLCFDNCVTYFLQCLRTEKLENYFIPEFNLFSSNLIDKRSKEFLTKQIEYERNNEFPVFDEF

| IC50 | SMILES |
| --- | --- |
| 4.21 µM | Cc1ccc(-c2ccc(OCc3ccccc3)c(C(=O)O)c2)c(Cl)c1 [Example 8, 5-(2-Chloro-4-methylphenyl)-2-phenylmethoxybenzoic Acid] |
| 0.32 µM | Cc1ccc(-c2ccc(NC(=O)CN3CCOCC3)c(C(=O)O)c2)c(Cl)c1 [Example 4, 5-(2-Chloro-4-methylphenyl)-2-[(2-morpholin-4-ylacetyl)amino]benzoic Acid] |
| 3.07 µM | Cc1ccc(-c2ccc(NC(=O)Cc3ccccc3)c(C(=O)O)c2)c(Cl)c1 [Example 5, 5-(2-Chloro-4-methylphenyl)-2-[(2-phenylacetyl)amino]benzoic Acid] |
| 2.67 µM | Cc1ccc(-c2ccc(OCCN3CCS(=O)(=O)CC3)c(C(=O)O)c2)c(Cl)c1 [Example 7, 5-(2-Chloro-4-methylphenyl)-2-[2-(1,1-dioxo-1,4-thiazinan-4-yl)ethoxy]benzoic Acid] |
| 2.8 µM | Cc1ccc(-c2ccc(OCCn3ccnc3)c(C(=O)O)c2)c(Cl)c1 [Example 6, 5-(2-Chloro-4-methylphenyl)-2-(2-imidazol-1-ylethoxy)benzoic Acid] |

Further lines, the compound ahead of its results:

| SMILES | IC50 |
| --- | --- |
| Cc1ccc(-c2ccc(NC(=O)Cc3cnc(C)[nH]c3=O)c(C(=O)O)c2)c(Cl)c1 [Example 2, 2′-Chloro-4′-methyl-4-(2-(2-methyl-6-oxo-1,6-dihydropyrimidin-5-yl)acetamido)-[1,1′-biphenyl]-3-carboxylic Acid] | 2.09 µM |
| Cc1ccc(-c2ccc(NC(=O)CCN3CCOCC3)c(C(=O)O)c2)c(Cl)c1 [Example 3, 2′-Chloro-4′-methyl-4-(3-morpholinopropanamido)-[1,1′-biphenyl]-3-carboxylic Acid] | 4.82 µM |
| Cc1ccc(-c2ccc(NC(=O)Cn3cncn3)c(C(=O)O)c2)c(Cl)c1 [Example 1, 4-(2-(1H-1,2,4-Triazol-1-yl)acetamido)-2′-chloro-4′-methyl-[1,1′-biphenyl]-3-carboxylic Acid] | 1.83 µM |
